In patent publication US8202893B2, “Cannabinergic lipid ligands” (University of Connecticut, priority 2004, dated 2012):
Where two headings read alike, the source gives them in different places.

Tests used:
CB1 cannabinoid receptor = molecular target: T1, CB1 cannabinoid receptor (Rattus norvegicus, UniProt P20272); test: CB1 receptor binding, [3H]CP-55,940 displacement; conditions: rat forebrain membranes
T1 construct: membranes were prepared from rat forebrain membranes; from tissue; host or cells: rat forebrain
Experimental: Some inventive analogs were tested for CB2 receptor binding affinity and for CB1 receptor affinity (to determine selectivity). […] The lower the Ki value, the higher the binding affinity. […] For the CB1 receptor binding studies, membranes were prepared from rat forebrain membranes according to the procedure of P. R. Dodd et al, A Rapid Method for Preparing Synaptosomes: Comparison with Alternative Procedures, Brain Res., 107-118 (1981). The binding of the novel analogues to the CB1 cannabinoid receptor was assessed as described in W. A. Devane et al, Determination and Characterization of a Cannabinoid Receptor in a Rat Brain, Mol. Pharmacol., 34, 605-613 (1988) and A. Charalambous et al, 5′-azido Δ^8-THC: A Novel Photoaffinity Label for the Cannabinoid Receptor, J. Med. Chem., 35, 3076-3079 (1992) with the following changes. The above articles are incorporated by reference herein.
Membranes, previously frozen at −80° C., were thawed on ice. To the stirred suspension was added three volumes of TME (25 mM Tris-HCl buffer, 5 mM MgCl2 and 1 mM EDTA) at a pH 7.4. The suspension was incubated at 4° C. for 30 min. At the end of the incubation, the membranes were pelleted and washed three times with TME.
(§1) The treated membranes were subsequently used in the binding assay described below. Approximately 30 μg of membranes were incubated in silanized 96-well microtiter plate with TME containing 0.1% essentially fatty acid-free bovine serum albumin (BSA), 0.8 nM [^3H] CP-55,940, and various concentrations of test materials in a final volume of 200 μL. The assays were incubated for 1 hour at 30° C. and then immediately filtered using Packard Filtermate 196 harvester and Whatman GF/C filterplates and washed with wash buffer (TME) containing 0.5% BSA. Radioactivity was detected using MicroScint 20 scintillation cocktail added directly to the dried filterplates, and the filterplates were counted using a Packard Instruments Top-Count. Nonspecific binding was assessed using 100 nM CP-55,940. Data collected from three independent experiments performed with duplicate determinations was normalized between 100% and 0% specific binding for [^3H] CP-55,940, determined using buffer and 100 nM CP-55,940. The normalized data was analyzed using a 4-parameter nonlinear logistic equation to yield IC50 values.

CB2 receptor = molecular target: T2, CB2 receptor (Mus musculus, UniProt P47936); test: CB2 receptor binding, [3H]CP-55,940 displacement; conditions: mouse spleen membranes
T2 construct: membranes were prepared from frozen mouse spleen; from tissue; host or cells: mouse spleen
Experimental: as §1
For the CB2 receptor binding studies, membranes were prepared from frozen mouse spleen essentially according to the procedure of P. R. Dodd et al, A Rapid Method for Preparing Synaptosomes: Comparison with Alternative Procedures, Brain Res., 226, 107-118 (1981) which is incorporated by reference herein. Silanized centrifuge tubes were used throughout to minimize receptor loss due to adsorption. The CB2 binding assay was conducted in the same manner as for the CB1 binding assay. The binding affinities (Ki) were also expressed in nanomoles (nM).

anandamide transporter = test: [3H]Anandamide transporter competition assay; format: cell-based; conditions: human CCF-STG1 astrocytoma cells, 10 nM [3H]anandamide
Experimental: Human CCF-STG1 astrocytoma cells (American Type Culture collection) were grown in RPMI1640 culture medium containing 2 mM L-glutamine, 4.5 g/L glucose, 10 mM HEPES, and 1.0 mM sodium pyruvate, 10% FBS, cultures at 37° C. with 5% CO2. For standard competition assays, confluent cells grown in 24-well plates were rinsed and preincubated for 10 min at 37° C. in assay buffer (Hank's Balanced Salt Solution containing 0.1% DMSO, 10 mM HEPES) plus test compounds (at their final concentrations of 0.01-100 μM). After having discarded the preincubation media, the cells were incubated for 4 min in 0.2 ml assay buffer containing 10 nM [^3H] anandamide (137.6 Ci/mmol, New England Nuclear) plus test compounds. Reactions were stopped by removing the incubation media and rinsing the cells three times with 0.5 ml of ice-cold HBSS buffer containing 0.1% fatty acid-free Bovine Serum Albumin (sigma). Radioactive material in Triton X-100 cell extracts was measured by liquid scintillation counting. A minimum of three independent experiments conducted in six replicates was used to define the concentration needed to produce half-maximal inhibition (IC50) for each compound. IC50 values were obtained by nonlinear regression fitting of the data, using the PRIZM software package. Data are expressed as mean±SEM.

Mag-lipase = molecular target: T3, Mag-lipase (Rattus norvegicus, UniProt Q8R431); test: Inhibition of MAG-lipase: 2-AG metabolism to arachidonic acid; format: biochemical; conditions: 30 nmoles compound with 30 nmoles 2-AG, 30 μg enzyme, 300 μL, 20 min
T3 construct: supernatant from final spin in the anandamide amidase preparation; from tissue; host or cells: supernatant (soluble fraction) of the anandamide amidase preparation, rat brain by the cited procedure
T3 sequence (Q8R431 1-303): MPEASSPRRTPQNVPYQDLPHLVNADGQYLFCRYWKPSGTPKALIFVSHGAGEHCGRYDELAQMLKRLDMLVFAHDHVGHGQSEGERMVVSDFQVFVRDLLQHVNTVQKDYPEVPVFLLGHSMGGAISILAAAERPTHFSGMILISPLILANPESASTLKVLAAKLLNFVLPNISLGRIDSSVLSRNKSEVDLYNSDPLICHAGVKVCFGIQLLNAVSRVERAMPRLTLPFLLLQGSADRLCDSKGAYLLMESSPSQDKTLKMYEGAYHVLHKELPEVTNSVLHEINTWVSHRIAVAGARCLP
Experimental: (§2) All compound solutions were made to a concentration of 10 mM in DMSO. Three tests were performed on each compound: hydrolysis, to determine the stability of the compound in assay conditions without the enzyme present; metabolism, to determine the stability of the compound with the enzyme present; and inhibition of 2-Arachidonoyl glycerol (native substrate) metabolism to arachidonic acid.
(§3) The inhibition of 2-AG metabolism was measured by mixing 30 nmoles of the compound with 30 nmoles 2-AG, and 30 μg enzyme preparation in TME buffer (final volume of 300 μL). Again the reaction mixture was treated in the same manner as described above and the concentrations of 2-AG and AA were calculated using external standards. Percent inhibition was calculated using the following equation: % Inhib.=(AA20-AA0)i/(AA20-AA0)s where (AA20-AA0)i is the amount of arachidonic acid formed over 20 minutes from 2-AG with the inhibitor present and (AA20-AA0)s is the amount of arachidonic acid formed over 20 minutes from 2-AG when the inhibitor is not present. […] The reaction mixtures were treated as described above and the amount of AA formed was calculated. The software package GraphPad Prism was utilized to calculate IC50 and Ki. HPLC Conditions:
(§4) Chromatographic separation was achieved using an Ultrasphere ODS Pre-column (4.6×45 mm) from Beckman. Hardware consisted of a Waters Millennium HPLC system with a 20 μL injection loop. The mobile phase consisted of 8.5% o-phosphoric acid:acetonitrile (3:7), run isocratically at a rate of 1 mL/min and detection at 204 nm. The total run time was 8 minutes with 2-AG eluting at 3.0 minutes and AA at 6.0 minutes.

[1] = molecular target: T4, FAAH (fatty acid amide hydrolase) (Rattus norvegicus, UniProt P97612); test: FAAH screening: inhibition of anandamide metabolism to arachidonic acid; format: biochemical; conditions: 25 nmoles compound with 25 nmoles AEA, 75 μg enzyme, 250 μL, 15 min
T4 construct: Anandamide Amidase Activity in Rat Brain Microsomes; from tissue; host or cells: rat brain microsomes (by the cited procedure)
T4 sequence (P97612 1-579): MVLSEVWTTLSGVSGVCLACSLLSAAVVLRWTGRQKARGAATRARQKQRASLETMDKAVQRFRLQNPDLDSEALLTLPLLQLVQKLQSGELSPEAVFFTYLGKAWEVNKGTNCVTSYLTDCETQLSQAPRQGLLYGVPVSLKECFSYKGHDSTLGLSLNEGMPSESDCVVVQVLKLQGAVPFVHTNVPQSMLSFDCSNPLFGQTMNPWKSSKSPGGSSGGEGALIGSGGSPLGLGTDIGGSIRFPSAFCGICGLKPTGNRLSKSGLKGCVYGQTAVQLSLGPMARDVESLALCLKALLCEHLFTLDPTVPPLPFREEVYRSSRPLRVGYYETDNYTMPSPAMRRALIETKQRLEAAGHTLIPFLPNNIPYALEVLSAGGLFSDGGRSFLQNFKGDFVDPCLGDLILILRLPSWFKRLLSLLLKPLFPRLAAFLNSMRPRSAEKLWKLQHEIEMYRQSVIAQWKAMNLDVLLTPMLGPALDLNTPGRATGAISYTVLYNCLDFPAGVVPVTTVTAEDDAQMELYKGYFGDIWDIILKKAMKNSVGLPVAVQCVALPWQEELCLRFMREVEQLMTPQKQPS
Experimental: The FAAH (fatty acid amide hydrolase) enzyme preparation was obtained according to the procedure of Lang and Makriyannis et al High Performance Liquid Chromatographic Determination of Anandamide Amidase Activity in Rat Brain Microsomes, Analytical Biochemistry (238): 40-45, 1996.
as §2, with “anandamide” for “2-Arachidonoyl glycerol”
as §3, with “Again” for “The inhibition of 2-AG metabolism was measured by mixing 30 nmoles of the compound with 30 nmoles 2-AG, and 30 μg enzyme preparation in TME buffer (final volume of 300 μL). Again”, “AEA” for “2-AG”, “Inhib.=(AA15-AA0)i/(AA15-AA0)s” for “Inhib.=(AA20-AA0)i/(AA20-AA0)s”, “(AA15-AA0)c” for “(AA20-AA0)i”, “15” for “20”, “(AA15-AA0)s” for “(AA20-AA0)s”
as §4, with “AEA” for “2-AG”, “2.2” for “3.0”

[2] = with PMSF (second value of cell), read-out: Ki CB1 (nM) (o/w PMSFQ)
[3] = without PMSF (first value of cell), read-out: Ki CB1 (nM) (o/w PMSFQ)
[4] = with PMSF (second value of cell), read-out: Ki CB1 (nM) (o/w PMSF)
[5] = without PMSF (first value of cell), read-out: Ki CB1 (nM) (o/w PMSF)

T1 sequence (P20272 whole entry): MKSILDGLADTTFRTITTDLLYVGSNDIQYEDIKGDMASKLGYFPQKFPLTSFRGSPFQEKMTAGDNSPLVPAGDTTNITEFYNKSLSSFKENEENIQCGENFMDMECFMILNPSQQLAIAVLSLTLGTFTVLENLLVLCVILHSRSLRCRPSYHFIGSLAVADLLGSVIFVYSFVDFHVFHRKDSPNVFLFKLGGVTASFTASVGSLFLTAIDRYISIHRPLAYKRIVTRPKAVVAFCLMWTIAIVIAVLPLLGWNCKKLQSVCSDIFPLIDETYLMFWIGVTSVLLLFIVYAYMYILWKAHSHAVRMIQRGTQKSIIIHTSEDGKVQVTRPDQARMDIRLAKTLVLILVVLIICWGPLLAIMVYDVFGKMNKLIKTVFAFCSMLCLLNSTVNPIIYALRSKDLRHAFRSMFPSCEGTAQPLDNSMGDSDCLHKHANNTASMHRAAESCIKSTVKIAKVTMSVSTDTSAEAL
T2 sequence (P47936 whole entry): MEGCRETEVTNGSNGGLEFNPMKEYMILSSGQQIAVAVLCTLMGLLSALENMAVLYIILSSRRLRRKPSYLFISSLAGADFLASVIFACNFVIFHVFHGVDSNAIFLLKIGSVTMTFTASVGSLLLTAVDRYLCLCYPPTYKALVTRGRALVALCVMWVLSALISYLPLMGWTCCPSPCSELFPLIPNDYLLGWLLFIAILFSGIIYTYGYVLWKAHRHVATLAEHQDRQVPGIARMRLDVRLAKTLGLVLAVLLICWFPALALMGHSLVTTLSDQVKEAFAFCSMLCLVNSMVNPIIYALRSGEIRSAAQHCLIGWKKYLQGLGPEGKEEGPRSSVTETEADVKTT

## CCCCCN(C)C/C=C\C/C=C\C/C=C\C/C=C\CCCCNC(=O)c1ccc(O)cc1 [Compound A26]
CB1 cannabinoid receptor; [2]
  Ki: 2150 nM
CB1 cannabinoid receptor; [3]
  Ki: 4720 nM
CB2 receptor
  Ki: 2.91 µM
Anandamide transporter; read-out: IC50 AT inhibition
  IC50: 5.4 µM
Mag-lipase
  Mag-Lipase % Inhibition: 9.8%

## CCCCCN(C)C/C=C\C/C=C\C/C=C\C/C=C\CCCCNC(=O)c1ccc(O)cc1 [Compound A27]
CB1 cannabinoid receptor; [2]
  Ki: 1620 nM
CB1 cannabinoid receptor; [3]
  Ki: 2220 nM
CB2 receptor
  Ki: 2.56 µM
Anandamide transporter; read-out: IC50 AT inhibition
  IC50: 7.1 µM
Mag-lipase
  Mag-Lipase % Inhibition: 4.2%

## CCCCCC=CCC=CCC=CCC=CCCCCOC(=O)NCC(C)O (stereo not shown) [Compound B4]
CB1 cannabinoid receptor; [4]
  Ki: 320 nM
CB1 cannabinoid receptor; [5]
  Ki: 338 nM
CB2 receptor
  Ki: 0.254 µM
Anandamide transporter; read-out: IC50 (AT inhib.)
  IC50: 0.4 µM
[1]
  FAAH % Inhibition: 7%

## CCCCC/C=C\C/C=C\C/C=C\C/C=C\CCCCOC(=O)NC(C)C [Compound B5]
CB1 cannabinoid receptor; [4]
  Ki: 343 nM
CB1 cannabinoid receptor; [5]
  Ki: 510 nM
CB2 receptor
  Ki: 0.543 µM
Anandamide transporter; read-out: IC50 (AT inhib.)
  IC50: 21.9 µM
[1]
  FAAH % Inhibition: 4.5%

## CCCCC/C=C\C/C=C\C/C=C\C/C=C\CCCCOC(=O)Nc1ccc(O)cc1 [Compound B9]
CB1 cannabinoid receptor; [4]
  Ki: 3300 nM
CB1 cannabinoid receptor; [5]
  Ki: 5390 nM
CB2 receptor
  Ki: 0.533 µM
Anandamide transporter; read-out: IC50 (AT inhib.)
  IC50: 6.6 µM
[1]
  FAAH % Inhibition: 27.3%

## CCCCC/C=C\C/C=C\C/C=C\C/C=C\CCCCOC(=O)NC1=NCCS1 [Compound B10]
Anandamide transporter; read-out: IC50 (AT inhib.)
  IC50: 8.6 µM
Mag-lipase
  Mag-Lipase % Inhibition: 34.0%

## CCCCC/C=C\C/C=C\C/C=C\C/C=C\CCCCOC(=O)Nc1cccnc1 [Compound B11]
CB1 cannabinoid receptor; [4]
  Ki: 96.4 nM
CB1 cannabinoid receptor; [5]
  Ki: 302 nM
CB2 receptor
  Ki: 0.185 µM
Anandamide transporter; read-out: IC50 (AT inhib.)
  IC50: 16.1 µM
Mag-lipase
  inhibition at 100 µM: 16.8%

## CCCCCCCCC=CCCCCCCCCOC(=O)NCC(C)O (stereo not shown) [Compound B13]
CB1 cannabinoid receptor; [4]
  Ki: 2240 nM
CB1 cannabinoid receptor; [5]
  Ki: 4750 nM
CB2 receptor
  Ki: 2.6 µM
Anandamide transporter; read-out: IC50 (AT inhib.)
  IC50: 5.92 µM
Mag-lipase
  Mag-Lipase % Inhibition: 13.1%
